According to US20240270737A1, “SMALL MOLECULAR INHIBITORS OF STING SIGNALING COMPOSITIONS AND METHODS OF USE” (STINGINN INC., priority 2021, published 2024):

Experiments:
[1] = test system: IFNβ expression (type I IFNβ promoter driving luciferase); assay: IFNβ promoter luciferase assay in hTERT-pIFNβ-Glu cells transfected with ISD; format: cell-based, human; details: Homo sapiens
Procedure: Inhibition of IFNβ expression was measured by Luciferase induction at 24 hours after transfection of ISD, DMSO is shown (230), ISD treatment only (220) was used as a control, according to an embodiment of the invention;
Inhibition of IFNβ expression was measured by Luciferase induction at 24 hours after transfection of ISD, Mock is shown (210), ISD treatment only (220) was used as a control, according to an embodiment of the invention;
Identification of small molecule inhibitors of STING. In the presence of cytosolic DNA species, STING becomes activated to drive the transcription of cytokines such as type I IFN. Compounds binding to STING via TSA were subsequently examined for their ability to prevent cytosolic DNA species from activating the type I interferon (IFN) promoter, using a live cell assay. This assay comprised immortalized human fibroblasts (hTERT) that were stably transfected with the type I IFN promoter driving luciferase as well as the CMV promoter driving SEAP (hTERT-pIFNβ-Glu). The live cell assay has previously been disclosed in PCT/US2019/025380 entitled IFN-Beta Reporter System for Immortalized Primary Cells inventor Glen N. Barber, which was filed Apr. 2, 2018 and published as WO2019195285, and which is herein incorporated by reference in its entirety and for all purposes. The ability of the small molecules to prevent activation of the type I IFN promoter and the transcription of luciferase, but not SEAP in response to cytosolic DNA species was assessed. The activation of STING, typically by CDNs, in turn activates the transcription factors NF-κB and IRF3, both of which are required to induce the transcriptional stimulation of the Type I IFN promoter, but not the CMV promoter as IRF3 and NF-kB transcription factor binding sites are not contained in the CMV promoter. The assay identified the small molecule Compound W1 in the first screen (HTS), where the level of luciferase was not able to activate the type I IFN promoter or induce the expression of luciferase (see Table I and Table II).
Inhibition of IFNβ expression was measured by Luciferase induction at 24 hours after transfection of ISD. ISD only treatment was used as control.
Inhibition of IFNβ expression was measured by Luciferase induction at 24 hours after transfection of ISD, Mock is shown (210), ISD treatment only (220) was used as a control.
Luciferase assay: hTERT-BJ1 Telomerase Fibroblasts stably expressing the luciferase gene under the control of the interferon-beta promoter and SEAP gene under control of the CMV promoter) (hTERT-pIFNβ-Glu) were generated by the Barber laboratory. Luciferase assay was performed using Secrete-Pair Dual Luminescence Assay Kit from GeneCopoeia following the manufacturer's protocol.

[2] = test system: IRF3 translocation induced by dsDNA (ISD); assay: IRF3 translocation inhibition, confocal/immunofluorescence after ISD transfection; format: cell-based; details: Homo sapiens, % means blockage of IRF3 translocation induced by dsDNA (ISD)
Procedure: Inhibition of IFNβ expression was measured by Luciferase induction at 24 hours after transfection of ISD. […]. […] FIG. 3H qPCR of IFNβ 1 performed in MEFs treated same as in FIG. 3A. FIG. 3I qPCR of CCL5 performed in MEFs treated same as in FIG. 3A.
Immunofluorescence Microscopy: Cells were cultured and treated in their appropriate media on Lab-Tek II chamber slides. Cell were fixed with 4% paraformaldehyde for 15 minutes in at 37° C. and permeabilized with 0.05% Triton X-100 for 5 minutes at room temperature. Immunostaining was performed with rabbit-anti-STING polyclonal, rabbit-anti-IRF3 (Santa Cruz Biotechnology) or rabbit-anti-p65 (Cell Signaling) followed by fluorescence conjugated secondary antibodies (FITC-goat-anti-rabbit) (Invitrogen).

pIRF3, pSTING = assay: Western blot of pIRF3, pSTING, pTBK1 after ISD transfection in hTERT cells; format: cell-based, human; details: Homo sapiens
Procedure: FIG. 1C are photographs showing Western blot analysis of STING, phospho-TBK1 (pTBK1) and phospho-IRF3 (pIRF3) performed at 6 hours after ISD transfection with/without W1 treatment same as FIG. 1A, Mock is shown (210), ISD treatment only (220) was used as a control, according to an embodiment of the invention;
Immunoblot analysis: Equal amounts of proteins were resolved on sodium dodecyl sulfate (SDS)-Polyacrylamide gels and then transferred to polyvinylidene fluoride (PVDF) membranes (Millipore). After blocking with 5% Blocking Reagent, membranes were incubated with various primary antibodies (and appropriate secondary antibodies). The image was resolved using an enhanced chemiluminescence system ECL (Thermo Scientific) and detected by autoradiography (Kodak). Antibodies: rabbit polyclonal antibody against STING was developed in our laboratory as described previously in Ishikawa et al, 2008; other antibodies were obtained from following sources: β-actin (Sigma Aldrich), p-IRF3 (Cell Signaling), IRF3 (Santa Cruz Biotechnology), p-p65 (Cell Signaling), p65 (Cell Signaling), p-TBK1 (Cell Signaling), TBK1 (Abcam), cGAS (Cell Signaling).

| SMILES | inhibition at 5 µM [1] [%] | inhibition at 25 µM [2] [%] | inhibition at 10 µM (pIRF3, pSTING) [%] |
| --- | --- | --- | --- |
| COc1ccc(-c2nc(CN3CCN(c4cc(C)nc(N(C)C)n4)CC3)cs2)cc1OC [Compound W3, 4-(4-{[2-(3,4-dimethoxyphenyl)-1,3-thiazol-4-yl]methyl}piperazin-1-yl)-N,N,6-trimethylpyrimidin-2-amine] | -37 | 40 to 50 | 40 to 50 |
| COc1ccc(-c2nc(CN3CCN(c4nc(C)cc(C(C)C)n4)CC3)cs2)cc1OC [Compound W5, 2-(4-{[2-(3,4-dimethoxyphenyl)-1,3-thiazol-4-yl]methyl}piperazin-1-yl)-4-methyl-6-(propan-2-yl)pyrimidine] | 18 |  | < 10 |
| COc1ccc(-c2nc(CN3CCN(c4nc(C)nc(N(C)C)n4)CC3)cs2)cc1OC [Compound W4, 4-(4-{[2-(3,4-dimethoxyphenyl)-1,3-thiazol-4-yl]methyl}piperazin-1-yl)-N,N,6-trimethyl-1,3,5-triazin-2-amine] | 4 |  | < 10 |
| Cc1cc(N2CCN(Cc3csc(-c4ccc(C(F)(F)F)cc4)n3)CC2)nc(N(C)C)n1 [Compound W11, N,N,4-trimethyl-6-[4-({2-[4-(trifluoromethyl)phenyl]-1,3-thiazol-4-yl}methyl)piperazin-1-yl]pyrimidin-2-amine] | 38 | 90 to 100 | 90 to 100 |
| Cc1cc(N2CCN(Cc3cnc(-c4ccccc4)s3)CC2)nc(N(C)C)n1 [Compound W19, N,N,4-trimethyl-6-{4-[(2-phenyl-1,3-thiazol-5-yl)methyl]piperazin-1-yl}pyrimidin-2-amine] | 76 |  | < 10 |
| Cc1cc(N2CCN(Cc3ncc(-c4ccccc4)s3)CC2)nc(N(C)C)n1 [Compound W20, N,N,4-trimethyl-6-{4-[(5-phenyl-1,3-thiazol-2-yl)methyl]piperazin-1-yl}pyrimidin-2-amine] | 79 | 40 to 50 | < 10 |
| COc1ccc(-c2nc(CN3CCN(c4cc(C)nc(N(C)C)n4)CC3)cs2)c(OC)c1 [Compound W13, 4-(4-{[2-(2,4-dimethoxyphenyl)-1,3-thiazol-4-yl]methyl}piperazin-1-yl)-N,N,6-trimethylpyrimidin-2-amine] | 30 | 40 to 50 | 90 to 100 |
| CCc1ccc(-c2nc(CN3CCN(c4cc(C)nc(N(C)C)n4)CC3)cs2)cc1 [Compound W15] | 69 | 90 to 100 | 90 to 100 |
| Cc1cc(N2CCN(Cc3csc(-c4ccc(Cl)cc4)n3)CC2)nc(N(C)C)n1 [Compound W14, 4-(4-{[2-(4-chlorophenyl)-1,3-thiazol-4-yl]methyl}piperazin-1-yl)-N,N,6-trimethylpyrimidin-2-amine] | 42 | ~70 | 90 to 100 |
| CCN(C)c1nc(C)cc(N2CCN(Cc3csc(-c4ccc(OC)c(OC)c4)n3)CC2)n1 [Compound W21, 4-(4-{[2-(3,4-dimethoxyphenyl)-1,3-thiazol-4-yl]methyl}piperazin-1-yl)-N-ethyl-N,6-dimethylpyrimidin-2-amine] | -84 |  |  |
| Cc1cc(N2CCN(Cc3csc(-c4ccc5c(c4)OCC5)n3)CC2)nc(N(C)C)n1 [Compound W35] | 0 |  |  |
| Cc1cc(N2CCN(Cc3csc(-c4ccc(C(C)C)cc4)n3)CC2)nc(N(C)C)n1 [Compound W29, N.N.4-trimethyl-6-[4-({2-[4-(propan-2-yl)phenyl]-1.3-thiazol-4-yl}methyl)piperazin-1-yl]pyrimidin-2-amine] | 50 |  |  |
| Cc1cc(N2CCN(Cc3csc(-c4ccc(C(C)(F)F)cc4)n3)CC2)nc(N(C)C)n1 [Compound W32, 4-[4-({2-[4-(1.1-difluoroethyl)phenyl]-1.3-thiazol-4-yl}methyl)piperazin-1-yl]-N.N.6-trimethylpyrimidin-2-amine] | 70 |  |  |
| Cc1cc(N2CCN(Cc3csc(-c4ccc(C(F)(F)Cl)cc4)n3)CC2)nc(N(C)C)n1 [Compound W34, 4-[4-({2-[4-(chlorodifluoromethyl)phenyl]-1.3-thiazol-4-yl}methyl)piperazin-1-yl]-N.N.6-trimethylpyrimidin-2-amine] | 50 |  |  |
| COc1ccc(-c2nc(CN3CCN(c4cc(C(F)(F)F)nc(N(C)C)n4)CC3)cs2)cc1OC [Compound W28, 4-(4-{[2-(3,4-dimethoxyphenyl)-1,3-thiazol-4-yl]methyl}piperazin-1-yl)-N,N-dimethyl-6-(trifluoromethyl)pyrimidin-2-amine] | -89 |  |  |
| COc1ccc(-c2nc(CN3CCN(c4cc(C)nc(N5CCCC5)n4)CC3)cs2)cc1OC [Compound W24, 4-(4-{[2-(3,4-dimethoxyphenyl)-1,3-thiazol-4-yl]methyl}piperazin-1-yl)-6-methyl-2-(pyrrolidin-1-yl)pyrimidine] | -26 |  |  |
| Cc1cc(N2CCN(Cc3csc(-c4ccc(C5CC5)cc4)n3)CC2)nc(N(C)C)n1 [Compound W30, 4-(4-{[2-(4-cyclopropylphenyl)-1.3-thiazol-4-yl]methyl}piperazin-1-yl)-N.N.6-trimethylpyrimidin-2-amine] | 50 |  |  |
| CCN(CC)c1nc(C)cc(N2CCN(Cc3csc(-c4ccc(OC)c(OC)c4)n3)CC2)n1 [Compound W22, 4-(4-{[2-(3,4-dimethoxyphenyl)-1,3-thiazol-4-yl]methyl}piperazin-1-yl)-N,N-diethyl-6-methylpyrimidin-2-amine] | 28 |  |  |
| Cc1cc(N2CCN(Cc3csc(-c4ccc5c(c4)OCO5)n3)CC2)nc(N(C)C)n1 [Compound W9, 4-(4-{[2-(2H-1,3-benzodioxol-5-yl)-1,3-thiazol-4-yl]methyl}piperazin-1-yl)-N,N,6-trimethylpyrimidin-2-amine] | -40 |  |  |
| Cc1cc(N2CCN(Cc3csc(-c4ccc(S(C)(=O)=O)cc4)n3)CC2)nc(N(C)C)n1 [Compound W12, 4-(4-{[2-(4-methanesulfonylphenyl)-1,3-thiazol-4-yl]methyl}piperazin-1-yl)-N,N,6-trimethylpyrimidin-2-amine] | -40 |  |  |
